1 molecule from patent US11612586B2, “Indole regulation of antigen presenting cells” (THE TEXAS A&M UNIVERSITY SYSTEM, priority 2016, dated 2023) can be followed below.

Common to all, as to assay type: cell-based, mouse
The subject of one test is B220 (CD45R). Description: B220 surface expression on BMDCs. Particulars: BMDCs cultured from day 3 with indole (1 mM) or retinoic acid (1 μM). How it is done:
(§1) FIGS. 12A and 12B graphically illustrate that indole induces CCR9 and B220 on DCs. BMDCs were cultured in the presence of indole (1 mM), retinoic acid (1 μM), or DMF solvent control from day 3. On day 7, DCs were surface stained for expression of CCR9 and B220 and analyzed by flow cytometry. […] Mean of three independent experiments. * indicates p<0.05 for one-way ANOVA followed by Dunnett's post-test.
An indole-induced upregulation of the B220 (CD45R) antigen was also observed (FIGS. 12A and 12B), which is widely used to distinguish the plasmacytoid DC lineage and is believed to contribute to gut homing. However, more recently B220 has been reported to distinguish a DC subset more closely developmentally related to conventional rather than plasmacytoid DCs and a precursor to resident CD8+ and CD8− conventional DCs.

Test [1] has as its system naïve CD4+CD25− T cells. Description: T cell activation in the presence of BMDC supernatant: Treg induction. Particulars: T cells on α-CD3/α-CD28 plates, 72 hours.
Protocol: Specifically, naïve CD4+CD25− T cells were FACS-sorted and plated in 96-well, α-CD3 and α-CD28-coated tissue culture plates in a volume of 100 ul cell culture media. […] T cells with DC supernatant were cultured for 72 hours in the presence or absence of exogenous TGF-β. Subsequently, cells were stained for the transcription factor Foxp3 and analyzed by flow cytometry.
Naïve CD4+CD25− T cells were FACS-sorted as described above and plated in 96-well, αCD3 and αCD28-coated tissue culture plates in a volume of 100 ul cell culture media. An equal volume of spent BMDC supernatant was added, in the presence or absence of exogenous TGF-β, and T cells were cultured for 72 hours. To generate supernatants, day 3-treated BMDCs were collected on day 7, washed extensively and plated in a 48-well cell culture plate at 5×10^5 cells per well in 500 ul fresh complete media for 24 hours in the presence or absence of 1 ug/ml LPS. Plates were then centrifuged and supernatants were collected, filtered, and stored at −20° C. until use.
The test system of test [2] is naïve CD4+CD25− T cells. Description: DC-T cell co-culture without cell contact (Transwell): Treg induction. The note with it: exogenous TGF-β added, 3 days.
Protocol: Transwell tissue culture plates were used to perform co-cultures with a physical barrier between the two cell types. Naïve CD4+CD25− T cells were FACS-sorted and placed in the bottom of a 24-well Transwell cell culture plate with 0.4 uM polycarbonate membranes that had been coated with α-CD3 (5 ug/ml) and α-CD28 (2 ug/ml). TGF-β was added at the indicated concentrations. […] The T cell to DC ratio was 2:1, as in other co-culture experiments. After 3 days, T cells were stained for Foxp3 and analyzed by flow cytometry.
Naïve CD4+CD25− T cells were FACS-sorted and placed in the bottom of a 24-well Transwell cell culture plate with 0.4 uM polycarbonate membranes (Corning) that had been coated with 5 μg/mL αCD3 (BioXcell 145-2C11) and 2 μg/mL αCD28 (BioXcell 37.51). TGF-β was added at the indicated concentrations. The insert was placed in the well and washed, Day 3-treated BMDCs were added to the top chamber such that culture media was shared, but the cell types were kept physically separate. The T cell to DC ratio was 2:1, as in other co-culture experiments.
In test [3] the test system is CCR9. Description: CCR9 induction on naïve T cells by conditioned DCs. Particulars: no exogenous RA in the co-culture. How it is done: FIG. 18 graphically illustrates that indole-conditioned DCs induce CCR9 on naïve T cells upon activation. Naïve CD4+CD25− T cells from OT-II mice were co-cultured with OVA323-339 peptide-loaded BMDCs for 72 hours in the presence of RA as indicated. BMDCs were previously treated with indole, RA, or DMF from day 3. Following 3 days of co-culture, surface staining was performed for flow cytometric analysis.
Based on the observation that indole induces gut homing markers on developing DCs, it was queried whether indole-conditioned DCs could also confer gut homing markers upon naïve CD4+ T cells. The antigen-specific T cell activation model was used to address this question, and a titration of RA was included as a positive control to induce CCR9. […] Just 10 nM of RA enabled indole-DC co-cultures to achieve over 50% of T cells expressing CCR9 which was similar to RA-DC positive controls, whereas DMF-DC co-cultures with the same concentration of RA added achieved only 10% of CCR9+ T cells.
Naïve CD4+CD25− T cells of spleen and lymph nodes from OT-II mice were isolated by negative selection via column purification using the Naïve CD4+ T Cell Isolation Kit (Miltenyi Biotec). Naïve CD4+ T cells (>96% pure) were labeled with Cell Proliferation Dye efluor450 (eBioscience) following manufacturer's instructions then co-cultured with OVA peptide-loaded BMDCs at a ratio of 2:1 for 72 hours in a 96-well round-bottom tissue culture plate. BMDCs were previously treated with indole or RA from day 3. On day 7, DCs were washed extensively prior to being loaded with OVA323-339 peptide (10 ug/ml) for 1 hour at 37° C. BMDCs were then washed three times and plated with naïve CD4+ T cells. RA or TGFβ were added to co-cultures as indicated. Following 3 days of culture, cells were stained with antibodies to CD4, CCR9, and LPAM-1 (α4β7). Intracellular staining for Foxp3 was performed using a Foxp3 staining kit (eBioscience). The remaining CD4+ helper T cell lineages Th1, Th2, and Th17 were identified by their cytokine production. […]

The subject of test [4] is CCR9. Description: CCR9 surface expression on BMDCs. Particulars: BMDCs cultured from day 3 with indole (1 mM) or retinoic acid (1 μM), day 7. The protocol:
as §1
Dendritic cell subsets bear numerous surface antigens that regulate their migration and localization. Because indole is produced in the gut and appears to induce anti-inflammatory properties in DCs (as described above), it was hypothesized that indole might affect migration and retention in mucosal tissues. Thus, expression of the gut homing marker, chemokine receptor CCR9 was investigated. […] Retinoic acid (RA) was included as a positive control. RA is present in murine plasma at approximately […] and is predicted to exist at higher concentrations in tissue microenvironments in vivo. Thus, 1 uM was used as a conservative estimate of relevant physiological concentration. Indole's effect was even more profound than that of retinoic acid, a known inducer of mucosal homing markers on T cells (see, e.g., Iwata M, et al. (2004) Retinoic Acid Imprints Gut-Homing Specificity on T Cells. Immunity 21(4):527-538). […]

The structures appear in SMILES notation.

As to `CC1=C(/C=C/C(C)=C/C=C/C(C)=C/C(=O)O)C(C)(C)CCC1` [RA, all-trans retinoic acid, reference compound], the “B220 (CD45R) expression on BMDCs” value in the test on B220 (CD45R) is given as “does not induce B220”. Besides, the “Treg induction by supernatant of conditioned BMDCs relative to solvent control DCs” value in the test with naïve CD4+CD25− T cells [1] is “approximately 2 fold”. Besides, the “Treg induction by conditioned DCs without cell contact over solvent controls” value in the test on naïve CD4+CD25− T cells [2] was 3 fold. The “induction of CCR9 on naïve T cells by conditioned BMDCs alone” value in the test on CCR9 [3] is “sufficient”. The “surface expression of CCR9 on conditioned DCs” value in the test on CCR9 [4] is recorded as 22%.
